Common to all, as to test: biochemical
Experiment [1] concerns the target DYRK1B (Homo sapiens, UniProt Q9Y463). On the set-up: DiscoverX kinase panel, active-site competition binding (KINOMEscan type), percent of control at one concentration. The note with it: competition binding, percent of control. The text has this: (§1) To investigate the potential therapeutic benefit of inhibiting RIP1, we developed GNE684 or (S)-N-((S)-7-methoxy-1-methyl-2-oxo-2,3,4,5-tetrahydro-1H-pyrido[3,4-b]azepin-3-yl)-5-phenyl-6,7-dihydro-5H-pyrrolo[1,2-b][1,2,4]triazole-2-carboxamide with cross-species potency against RIP1, exquisite kinase selectivity, and favorable pharmacological properties (Fig. 1a–h, S1, Tables S1 and S2, SI file 1). […] (Fig. 1b, S1, and Table S1). […] GNE684 inhibited human RIP1 potently in vitro, and mouse and rat RIP1 with slightly less potency (Fig. 1d). Accordingly, it inhibited TNF-induced necroptosis in human HT-29, mouse L929, or rat H9c2 cells (Fig. 1e). The cellular potency of GNE684 was confirmed in a human whole blood assay using TBZ ([compound left out], IAP antagonist BV6, and pan-caspase inhibitor zVAD) or LZ (LPS plus zVAD) to trigger necroptosis and the release of IL-1α and IL-1β (Fig. 1f).

The target in experiment [2] is LTK (Homo sapiens, UniProt P29376). Also noted: DiscoverX kinase panel, active-site competition binding (KINOMEscan type), percent of control at one concentration. The note with it: competition binding, percent of control.
Excerpt: as §1

For experiment [3], the target named is STK33 (Homo sapiens, UniProt Q9BYT3). On the set-up: DiscoverX kinase panel, active-site competition binding (KINOMEscan type), percent of control at one concentration. The note with it: competition binding, percent of control.
Excerpt: as §1

The target in experiment [4] is ACVR1B (Homo sapiens, UniProt P36896). On the set-up: Thermo Fisher SelectScreen kinase panel: Z'-LYTE and Adapta activity, LanthaScreen binding. The method, then:
(§2) 5 88 GNE684 was tested in Thermo Fisher Scientific SelectScreen assay (Madison, WI) 89 against 221 representative kinases at a concentration of 10 µM, which is 476-fold greater than the Ki app 90 for GNE684 against human RIP1 in the RIP1 enzyme 91 assay. The kinase assays were carried out using Z'-LYTE and Adapta activity and 92 LanthaScreen binding assays (Thermo Fisher Scientific, Madison WI) following 93 protocols developed and performed by Thermo Fisher Scientific 94 (https://www.thermofisher.com/us/en/home/products-and-services/services/custom-95 services/screening-and-profiling-services/selectscreen-profiling-service/selectscreen-96 kinase-profiling-service.html). 97 GNE684 was also tested against 468 kinases in the KINOMEscan scanMAX kinase 98 binding assay panel at a concentration of 10 µM following protocols developed and 99 performed by DiscoverX (http://www.discoverx.com/kinase_profiling).

Experiment [5] concerns the target T1, Abl (Homo sapiens, UniProt P00519).
T1 construct: gene ABL1
Also noted: Thermo Fisher SelectScreen kinase panel: Z'-LYTE and Adapta activity, LanthaScreen binding. The method, then:
as §2

The target in experiment [6] is T2, Aurora_A (Homo sapiens, UniProt O14965).
T2 construct: gene AURKA
T2 sequence (O14965 whole entry): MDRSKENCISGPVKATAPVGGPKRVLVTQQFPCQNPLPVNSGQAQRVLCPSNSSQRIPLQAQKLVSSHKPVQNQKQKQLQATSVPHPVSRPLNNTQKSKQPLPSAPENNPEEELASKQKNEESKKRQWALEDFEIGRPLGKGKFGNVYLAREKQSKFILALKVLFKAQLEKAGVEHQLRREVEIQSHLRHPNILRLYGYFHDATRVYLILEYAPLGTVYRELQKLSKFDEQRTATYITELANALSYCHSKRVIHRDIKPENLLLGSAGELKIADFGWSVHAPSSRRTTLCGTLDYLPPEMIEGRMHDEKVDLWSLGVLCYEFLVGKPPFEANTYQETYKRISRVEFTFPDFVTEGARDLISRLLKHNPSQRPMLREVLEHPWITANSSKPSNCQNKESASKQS
Also noted: Thermo Fisher SelectScreen kinase panel: Z'-LYTE and Adapta activity, LanthaScreen binding. Here is the method:
as §2

The target in experiment [7] is BMPR1A (Homo sapiens, UniProt P36894). On the set-up: Thermo Fisher SelectScreen kinase panel: Z'-LYTE and Adapta activity, LanthaScreen binding. Here is the method: as §2
BMPR1A, sequence (P36894 whole entry): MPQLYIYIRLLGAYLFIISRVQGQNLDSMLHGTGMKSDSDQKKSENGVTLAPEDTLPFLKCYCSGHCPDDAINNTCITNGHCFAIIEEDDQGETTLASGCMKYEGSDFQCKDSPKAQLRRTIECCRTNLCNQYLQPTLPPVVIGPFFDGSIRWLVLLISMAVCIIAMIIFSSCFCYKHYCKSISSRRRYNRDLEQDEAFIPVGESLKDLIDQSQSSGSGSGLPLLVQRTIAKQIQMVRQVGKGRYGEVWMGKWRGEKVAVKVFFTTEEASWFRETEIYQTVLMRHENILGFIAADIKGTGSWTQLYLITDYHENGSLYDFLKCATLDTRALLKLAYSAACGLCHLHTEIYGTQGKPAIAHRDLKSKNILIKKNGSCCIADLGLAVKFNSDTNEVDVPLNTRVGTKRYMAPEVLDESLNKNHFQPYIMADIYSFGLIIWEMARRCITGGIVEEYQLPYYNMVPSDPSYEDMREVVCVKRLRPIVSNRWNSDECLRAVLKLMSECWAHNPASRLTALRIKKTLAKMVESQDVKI
Experiment [8] deals with DYRK4 (Homo sapiens, UniProt Q9NR20). Also noted: Thermo Fisher SelectScreen kinase panel: Z'-LYTE and Adapta activity, LanthaScreen binding. The method, then: as §2
DYRK4, sequence (Q9NR20 whole entry): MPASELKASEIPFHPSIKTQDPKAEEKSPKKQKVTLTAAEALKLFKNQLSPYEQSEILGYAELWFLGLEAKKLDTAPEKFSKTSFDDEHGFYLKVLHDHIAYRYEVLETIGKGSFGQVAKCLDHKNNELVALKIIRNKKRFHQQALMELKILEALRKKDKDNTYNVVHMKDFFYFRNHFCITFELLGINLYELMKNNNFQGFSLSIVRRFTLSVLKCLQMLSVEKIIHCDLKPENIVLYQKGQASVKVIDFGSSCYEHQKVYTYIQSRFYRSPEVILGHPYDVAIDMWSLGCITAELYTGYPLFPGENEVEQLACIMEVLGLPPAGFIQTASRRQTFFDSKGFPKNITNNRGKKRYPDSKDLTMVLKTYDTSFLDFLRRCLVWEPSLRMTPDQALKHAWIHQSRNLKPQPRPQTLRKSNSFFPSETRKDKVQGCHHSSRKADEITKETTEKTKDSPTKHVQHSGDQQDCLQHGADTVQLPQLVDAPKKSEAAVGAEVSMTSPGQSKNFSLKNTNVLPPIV
Experiment [9] has as its target EPHA7 (Homo sapiens, UniProt Q15375). Also noted: Thermo Fisher SelectScreen kinase panel: Z'-LYTE and Adapta activity, LanthaScreen binding. The method, then:
as §2

Experiment [10] deals with FRK (Homo sapiens, UniProt P42685). On the set-up: Thermo Fisher SelectScreen kinase panel: Z'-LYTE and Adapta activity, LanthaScreen binding. The method, then:
as §2

Experiment [11] concerns the target GRK6 (Homo sapiens, UniProt P43250). On the set-up: Thermo Fisher SelectScreen kinase panel: Z'-LYTE and Adapta activity, LanthaScreen binding. Here is the method: as §2
Experiment [12] concerns the target T3, GSK3_alpha (Homo sapiens, UniProt P49840).
T3 construct: gene GSK3A
Also noted: Thermo Fisher SelectScreen kinase panel: Z'-LYTE and Adapta activity, LanthaScreen binding. Here is the method:
as §2

In experiment [13] the target is IGF1R (Homo sapiens, UniProt P08069). Also noted: Thermo Fisher SelectScreen kinase panel: Z'-LYTE and Adapta activity, LanthaScreen binding. Here is the method: as §2
IGF1R, sequence (P08069 whole entry): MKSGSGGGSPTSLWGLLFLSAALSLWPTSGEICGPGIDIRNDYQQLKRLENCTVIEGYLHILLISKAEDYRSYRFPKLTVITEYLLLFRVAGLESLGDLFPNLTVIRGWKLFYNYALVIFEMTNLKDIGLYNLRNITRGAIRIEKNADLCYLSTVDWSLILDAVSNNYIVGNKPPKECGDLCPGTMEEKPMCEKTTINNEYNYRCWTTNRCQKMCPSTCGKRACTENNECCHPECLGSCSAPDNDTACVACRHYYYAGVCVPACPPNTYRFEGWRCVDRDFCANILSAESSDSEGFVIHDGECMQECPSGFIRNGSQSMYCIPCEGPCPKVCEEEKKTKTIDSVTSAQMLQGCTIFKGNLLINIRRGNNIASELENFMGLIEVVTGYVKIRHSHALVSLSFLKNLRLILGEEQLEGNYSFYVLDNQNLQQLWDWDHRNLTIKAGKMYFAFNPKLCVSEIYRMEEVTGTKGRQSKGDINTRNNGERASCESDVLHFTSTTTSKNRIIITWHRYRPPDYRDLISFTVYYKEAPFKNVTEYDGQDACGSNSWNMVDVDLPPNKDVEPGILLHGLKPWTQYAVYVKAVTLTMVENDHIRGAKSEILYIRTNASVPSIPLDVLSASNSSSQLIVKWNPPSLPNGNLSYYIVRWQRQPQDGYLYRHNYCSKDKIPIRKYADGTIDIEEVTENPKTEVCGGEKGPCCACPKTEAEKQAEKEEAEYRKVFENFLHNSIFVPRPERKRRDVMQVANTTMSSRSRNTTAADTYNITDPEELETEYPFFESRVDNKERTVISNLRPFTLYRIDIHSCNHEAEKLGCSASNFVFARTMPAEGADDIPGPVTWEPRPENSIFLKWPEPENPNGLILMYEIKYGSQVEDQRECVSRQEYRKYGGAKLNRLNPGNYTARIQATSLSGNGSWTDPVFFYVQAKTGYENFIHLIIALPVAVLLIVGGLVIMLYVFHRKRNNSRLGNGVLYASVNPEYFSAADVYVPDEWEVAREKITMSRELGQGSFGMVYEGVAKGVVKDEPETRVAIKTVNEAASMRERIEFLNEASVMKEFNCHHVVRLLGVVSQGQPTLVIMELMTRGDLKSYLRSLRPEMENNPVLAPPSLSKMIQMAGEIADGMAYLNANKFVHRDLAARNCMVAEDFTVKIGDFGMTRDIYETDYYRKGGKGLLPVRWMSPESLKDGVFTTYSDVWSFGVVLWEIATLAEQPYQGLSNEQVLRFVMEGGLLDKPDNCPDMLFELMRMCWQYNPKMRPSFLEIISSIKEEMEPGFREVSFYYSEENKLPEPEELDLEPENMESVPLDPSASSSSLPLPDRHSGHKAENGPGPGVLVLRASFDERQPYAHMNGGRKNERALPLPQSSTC
Experiment [14] concerns the target T4, IKK-alpha (Homo sapiens, UniProt O15111).
T4 construct: gene CHUK
Also noted: Thermo Fisher SelectScreen kinase panel: Z'-LYTE and Adapta activity, LanthaScreen binding. The method, then:
as §2

The target of experiment [15] is T5, JNK1_alpha1 (Homo sapiens, UniProt P45983).
T5 construct: gene MAPK8; isoform alpha1
On the set-up: Thermo Fisher SelectScreen kinase panel: Z'-LYTE and Adapta activity, LanthaScreen binding. The method, then:
as §2

In experiment [16] the target is NLK (Homo sapiens, UniProt Q9UBE8). Also noted: Thermo Fisher SelectScreen kinase panel: Z'-LYTE and Adapta activity, LanthaScreen binding. Here is the method:
as §2

Experiment [17] has as its target T6, PI3K-A (Homo sapiens, UniProt P42336).
T6 construct: gene PIK3CA; p110alpha/p85alpha
On the set-up: Thermo Fisher SelectScreen kinase panel: Z'-LYTE and Adapta activity, LanthaScreen binding. The method, then: as §2

Experiment [18] has as its target T7, PKA (Homo sapiens, UniProt P17612).
T7 construct: gene PRKACA
Also noted: Thermo Fisher SelectScreen kinase panel: Z'-LYTE and Adapta activity, LanthaScreen binding. The method, then:
as §2

For experiment [19], the target named is T8, eEF-2K (Homo sapiens, UniProt O00418).
T8 construct: gene EEF2K
On the set-up: Thermo Fisher SelectScreen kinase panel: Z'-LYTE and Adapta activity, LanthaScreen binding. The method, then: as §2

GRK6, sequence (P43250 whole entry): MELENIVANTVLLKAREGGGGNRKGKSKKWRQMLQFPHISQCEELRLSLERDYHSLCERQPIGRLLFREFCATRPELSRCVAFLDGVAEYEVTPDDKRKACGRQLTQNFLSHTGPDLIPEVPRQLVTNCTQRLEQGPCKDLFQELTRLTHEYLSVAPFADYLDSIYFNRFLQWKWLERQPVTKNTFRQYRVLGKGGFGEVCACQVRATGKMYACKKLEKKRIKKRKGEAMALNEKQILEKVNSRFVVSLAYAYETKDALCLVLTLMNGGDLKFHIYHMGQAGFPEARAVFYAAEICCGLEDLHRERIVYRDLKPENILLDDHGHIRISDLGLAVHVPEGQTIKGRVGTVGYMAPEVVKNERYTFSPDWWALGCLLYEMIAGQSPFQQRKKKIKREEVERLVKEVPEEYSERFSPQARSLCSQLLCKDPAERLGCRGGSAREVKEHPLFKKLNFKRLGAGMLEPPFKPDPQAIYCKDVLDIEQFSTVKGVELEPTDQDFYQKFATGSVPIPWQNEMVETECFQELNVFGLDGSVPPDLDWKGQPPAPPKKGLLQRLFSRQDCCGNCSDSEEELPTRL
ACVR1B, sequence (P36896 whole entry): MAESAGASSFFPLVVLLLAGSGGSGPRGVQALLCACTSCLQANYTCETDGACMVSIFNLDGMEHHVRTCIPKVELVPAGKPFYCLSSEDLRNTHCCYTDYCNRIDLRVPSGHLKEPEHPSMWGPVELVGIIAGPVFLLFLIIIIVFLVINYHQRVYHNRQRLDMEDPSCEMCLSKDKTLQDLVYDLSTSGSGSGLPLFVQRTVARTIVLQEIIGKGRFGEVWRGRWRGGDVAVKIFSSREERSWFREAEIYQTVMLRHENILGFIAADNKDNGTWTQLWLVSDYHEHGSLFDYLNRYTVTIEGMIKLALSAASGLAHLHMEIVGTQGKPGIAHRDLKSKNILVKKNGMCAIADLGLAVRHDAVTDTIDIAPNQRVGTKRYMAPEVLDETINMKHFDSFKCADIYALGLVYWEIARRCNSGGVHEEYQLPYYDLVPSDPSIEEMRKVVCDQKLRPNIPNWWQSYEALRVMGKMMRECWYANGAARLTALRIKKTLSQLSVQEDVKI
DYRK1B, sequence (Q9Y463 whole entry): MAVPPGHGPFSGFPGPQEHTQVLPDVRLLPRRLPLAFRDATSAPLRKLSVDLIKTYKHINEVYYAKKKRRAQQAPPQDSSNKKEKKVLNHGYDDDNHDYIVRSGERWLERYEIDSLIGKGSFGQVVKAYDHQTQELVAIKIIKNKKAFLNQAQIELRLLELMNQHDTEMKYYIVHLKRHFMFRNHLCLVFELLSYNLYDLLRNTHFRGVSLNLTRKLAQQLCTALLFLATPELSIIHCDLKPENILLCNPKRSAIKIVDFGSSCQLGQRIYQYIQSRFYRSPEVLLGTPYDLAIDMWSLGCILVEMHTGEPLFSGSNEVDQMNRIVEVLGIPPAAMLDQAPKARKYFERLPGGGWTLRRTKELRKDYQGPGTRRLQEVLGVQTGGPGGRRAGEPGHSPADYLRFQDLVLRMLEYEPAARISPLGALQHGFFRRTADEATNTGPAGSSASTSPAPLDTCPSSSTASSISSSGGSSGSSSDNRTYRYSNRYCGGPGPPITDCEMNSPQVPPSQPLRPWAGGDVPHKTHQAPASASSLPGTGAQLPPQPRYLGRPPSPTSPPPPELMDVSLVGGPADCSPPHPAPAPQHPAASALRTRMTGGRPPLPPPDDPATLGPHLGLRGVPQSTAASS
FRK, sequence (P42685 whole entry): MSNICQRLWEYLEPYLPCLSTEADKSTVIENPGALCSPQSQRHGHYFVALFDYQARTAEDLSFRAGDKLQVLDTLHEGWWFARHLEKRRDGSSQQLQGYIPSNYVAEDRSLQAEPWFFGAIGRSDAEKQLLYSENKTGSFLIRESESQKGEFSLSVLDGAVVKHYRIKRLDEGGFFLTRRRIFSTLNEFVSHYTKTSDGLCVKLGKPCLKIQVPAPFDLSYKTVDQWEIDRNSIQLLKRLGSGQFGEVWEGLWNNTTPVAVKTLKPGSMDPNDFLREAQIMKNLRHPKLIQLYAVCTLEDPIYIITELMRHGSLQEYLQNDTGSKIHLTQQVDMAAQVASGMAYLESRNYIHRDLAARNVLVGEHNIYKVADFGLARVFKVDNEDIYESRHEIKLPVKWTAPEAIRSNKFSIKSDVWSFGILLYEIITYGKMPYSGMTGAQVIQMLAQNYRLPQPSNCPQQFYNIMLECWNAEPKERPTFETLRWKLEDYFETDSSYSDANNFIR

`COc1cc2c(cn1)N(C)C(=O)[C@@H](NC(=O)c1nc3n(n1)[C@H](c1ccccc1)CC3)CC2` [GNE684, (S)-N-((S)-7-methoxy-1-methyl-2-oxo-2,3,4,5-tetrahydro-1H-pyrido[3,4-b]azepin-3-yl)-5-phenyl-6,7-dihydro-5H-pyrrolo[1,2-b][1,2,4]triazole-2-carboxamide]: the remaining binding at 10 µM in [1] came to 54%; in experiment [2], 93%; in experiment [3], 86%. Moreover, the inhibition at 10 µM is -2% in experiment [4]; 2% in experiment [5]; 3% in experiment [6]; -4.5% in experiment [7]; 2% in [8]; -4% in [9]. Moreover, the inhibition at 10 µM in experiment [10] was 4.5%; in experiment [11], 6.5%; in experiment [12], 5%; in experiment [13] it was 5%; in [14], -3%; in experiment [15] it was -5.5%. For the same molecule, the inhibition at 10 µM was -0.5% in [16], 16% in experiment [17], 1% in experiment [18] and 0% in experiment [19].

These data come from paper PMC7206119, “RIP1 inhibition blocks inflammatory diseases but not tumor growth or metastases” (Cell Death and Differentiation, 2019).
